Results published in US7671084B2 (Wyeth, priority 2004, dated 2010).

Tests used:
[1] = target: T1, human ERβ (Homo sapiens, UniProt Q92731); experiment: Competition with [3H]-17β-estradiol for binding to ERβ; conditions: ligand binding domain of human ERβ in E. coli crude lysate, 2 nM [3H]-17β-estradiol, 5-15 hours at room temperature
T1 construct: made in house; host or cells: E. coli (crude lysate)
Description: Representative examples of the invention were evaluated for their ability to compete with 17β-estradiol for both ERα and ERβ. This test procedure provides the methodology for one to determine whether a particular compound binds to the estrogen receptor (and is therefore “estrogenic”) and whether there is selectivity for ERα or ERβ. […] 17β-estradiol is included as a standard reference for comparison. The procedure used is briefly described below. A crude lysate of E. coli expressing the estrogen receptor ligand binding domains (D, E, & F) of human ERα or ERβ was prepared. Both receptors and compounds were diluted in 1× Dulbecco's PBS (DPBS) supplemented with 1 mM EDTA. Using a high binding masked microtiter plate, 100 uL of receptor (1 uG/well) was combined with 2 nm [^3H]-17β-estradiol and various concentrations of compound. After between 5 and 15 hours at room temperature, the plates were washed with DPBS/1 mM EDTA and bound radioactivity determined by liquid scintillation counting. The IC50 is defined as the concentration of compound that decreases total 17β-estradiol binding by 50%.

[2] = target: T2, human ERα (Homo sapiens, UniProt P03372); experiment: Competition with [3H]-17β-estradiol for binding to ERα; conditions: ligand binding domain of human ERα in E. coli crude lysate, 2 nM [3H]-17β-estradiol, 5-15 hours at room temperature; read-out: ERα (nM) IC50
T2 construct: made in house; host or cells: E. coli (crude lysate)
T2 sequence (P03372 311-547 limits assumed): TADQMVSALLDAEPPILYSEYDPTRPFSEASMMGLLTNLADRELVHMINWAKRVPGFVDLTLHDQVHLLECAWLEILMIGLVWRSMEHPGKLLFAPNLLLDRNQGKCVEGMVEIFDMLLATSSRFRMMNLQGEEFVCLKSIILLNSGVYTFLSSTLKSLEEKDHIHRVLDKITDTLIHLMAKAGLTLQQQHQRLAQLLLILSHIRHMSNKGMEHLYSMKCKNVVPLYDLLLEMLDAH
Description: Representative examples of the invention were evaluated for their ability to compete with 17β-estradiol for both ERα and ERβ. This test procedure provides the methodology for one to determine whether a particular compound binds to the estrogen receptor (and is therefore “estrogenic”) and whether there is selectivity for ERα or ERβ. The values are shown in the Table infra and are reported as IC50s. 17β-estradiol is included as a standard reference for comparison. The procedure used is briefly described below. A crude lysate of E. coli expressing the estrogen receptor ligand binding domains (D, E, & F) of human ERα or ERβ was prepared. Both receptors and compounds were diluted in 1× Dulbecco's PBS (DPBS) supplemented with 1 mM EDTA. Using a high binding masked microtiter plate, 100 uL of receptor (1 uG/well) was combined with 2 nm [^3H]-17β-estradiol and various concentrations of compound. After between 5 and 15 hours at room temperature, the plates were washed with DPBS/1 mM EDTA and bound radioactivity determined by liquid scintillation counting. The IC50 is defined as the concentration of compound that decreases total 17β-estradiol binding by 50%.

T1 sequence (Q92731 264-498 limits assumed): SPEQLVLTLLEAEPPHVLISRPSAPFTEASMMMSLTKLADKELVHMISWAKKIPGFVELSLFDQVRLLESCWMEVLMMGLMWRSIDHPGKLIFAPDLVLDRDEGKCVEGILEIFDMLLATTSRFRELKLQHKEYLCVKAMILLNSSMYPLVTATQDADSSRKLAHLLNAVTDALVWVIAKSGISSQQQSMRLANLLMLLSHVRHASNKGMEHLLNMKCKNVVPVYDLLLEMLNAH

IC50 [1] [nM]	melting point [°C]	IC50 [2] [nM]	Compound
22	245 to 248	1820	COc1ccc(-c2c3c(cc4ccc(O)cc24)-c2ccc(O)cc2CO3)cc1OC [Example 42, 7-(3,4-Dimethoxyphenyl)-5H-dibenzo[c,g]chromene-3,9-diol]
142	195 to 198	804	CSc1ccc(-c2c3c(cc4ccc(O)cc24)-c2ccc(O)cc2CO3)cc1 [Example 56, 7-(4-Methylthiophenyl)-5H-dibenzo[c,g]chromene-3,9-diol]
2.7	> 280	32	N#Cc1c2c(cc3ccc(O)cc13)-c1ccc(O)cc1CO2 [Example 14, 3,9-Dihydroxy-5H-dibenzo[c,g]chromene-7-carbonitrile]
39	185 to 188	709	Cc1cc(-c2c3c(cc4ccc(O)cc24)-c2ccc(O)cc2CO3)ccc1F [Example 46, 7-(3-Methyl-4-Fluorophenyl)-5H-dibenzo[c,g]chromene-3,9-diol]
10	228 to 231	263	Oc1ccc2c(c1)COc1c-2cc2ccc(O)cc2c1-c1cccc(C(F)(F)F)c1 [Example 43, 7-(3-Trifluoromethylphenyl)-5H-dibenzo[c,g]chromene-3,9-diol]
4.2	219 to 222	117	Cc1cccc(-c2c3c(cc4ccc(O)cc24)-c2ccc(O)cc2CO3)c1 [Example 25, 7-(3-Tolyl)-5H-dibenzo[c,g]chromene-3,9-diol]
349	171 to 173	531	OCc1ccccc1-c1c2c(cc3ccc(O)cc13)-c1ccc(O)cc1CO2 [Example 22, 7-[2-(Hydroxymethyl)phenyl]-5H-dibenzo[c,g]chromene-3,9-diol]
0.8	187 to 189	4	CCCCc1c2c(cc3ccc(O)cc13)-c1ccc(O)cc1CO2 [Example 49, 7-Butyl-5H-dibenzo[c,g]chromene-3,9-diol]
40	110 to 112	661	Oc1ccc2c(c1)COc1c-2cc2ccc(O)cc2c1-c1cccc(OC(F)(F)F)c1 [Example 58, 7-(3-Trifluoromethoxyphenyl)-5H-dibenzo[c,g]chromene-3,9-diol]
1.4	233 to 236	75	Oc1ccc2c(c1)COc1c-2cc2ccc(O)cc2c1-c1cccs1 [Example 30, 7-Thien-2-yl-5H-dibenzo[c,g]chromene-3,9-diol]
1.4	240 to 242	73	Oc1ccc2c(c1)COc1c-2cc2ccc(O)cc2c1-c1ccccc1F [Example 38, 7-(2-Fluorophenyl)-5H-dibenzo[c,g]chromene-3,9-diol]
34	252 to 255	151	Oc1ccc2c(c1)COc1c-2cc2ccc(O)cc2c1-c1cc(Cl)cc(Cl)c1 [Example 45, 7-(3,5-Dichlorophenyl)-5H-dibenzo[c,g]chromene-3,9-diol]
22	218 to 221	608	Cc1ccc(-c2c3c(cc4ccc(O)cc24)-c2ccc(O)cc2CO3)cc1C [Example 39, 7-(3,4-Dimethylphenyl)-5H-dibenzo[c,g]chromene-3,9-diol]
71	240 to 242	358	N#CCc1ccc(-c2c3c(cc4ccc(O)cc24)-c2ccc(O)cc2CO3)cc1 [Example 57, 7-(4-Cyanomethylphenyl)-5H-dibenzo[c,g]chromene-3,9-diol]
9.2	> 250	162	N#Cc1ccc(-c2c3c(cc4ccc(O)cc24)-c2ccc(O)cc2CO3)cc1 [Example 40, 7-(4-Cyanophenyl)-5H-dibenzo[c,g]chromene-3,9-diol]
18	243 to 246	63	Oc1ccc2c(c1)COc1c-2cc2ccc(O)cc2c1-c1cccc(Cl)c1 [Example 33, 7-(3-Chlorophenyl)-5H-dibenzo[c,g]chromene-3,9-diol]
0.53	212 to 214	21	Oc1ccc2c(c1)COc1cc3c(Cl)c(O)ccc3cc1-2 [Example 6, 8-Chloro-5H-dibenzo[c,g]chromene-3,9-diol]
6.4	229 to 232	298	Oc1ccc2c(c1)COc1c-2cc2ccc(O)cc2c1-c1ccc(F)cc1 [Example 29, 7-(4-Fluorophenyl)-5H-dibenzo[c,g]chromene-3,9-diol]
11	193 to 196	487	Cc1ccccc1-c1c2c(cc3ccc(O)cc13)-c1ccc(O)cc1CO2 [Example 24, 7-(2-Tolyl)-5H-dibenzo[c,g]chromene-3,9-diol]
14	> 250	1360	Oc1ccc2c(c1)COc1c-2cc2ccc(O)cc2c1-c1cccnc1 [Example 50, 7-(3-Pyridinyl)-5H-dibenzo[c,g]chromene-3,9-diol]
108	> 220	> 5000	Oc1ccc2c(c1)COc1c-2cc2ccc(O)cc2c1-c1ccccn1 [Example 54, 7-(2-Pyridyl)-5H-dibenzo[c,g]chromene-3,9-diol]
17	220 to 223	434	COc1cccc(-c2c3c(cc4ccc(O)cc24)-c2ccc(O)cc2CO3)c1 [Example 34, 7-(3-Methoxyphenyl)-5H-dibenzo[c,g]chromene-3,9-diol]
9.7	220 to 222	26	Oc1ccc2c(c1)COc1c-2cc2ccc(O)cc2c1-c1ccccc1Cl [Example 35, 7-(2-Chlorophenyl)-5H-dibenzo[c,g]chromene-3,9-diol]
